According to ChEMBL document CHEMBL2380246, “Structure-activity relationships of hybrid annonaceous acetogenins: powerful growth inhibitory effects of their connecting groups between heterocycle and hydrophobic carbon chain bearing THF ring on human cancer cell lines” (2013):

Columns and labels:
Format in all cases: functional
HT-29 = assay: Growth inhibition of human HT-29 cells after 48 hrs by sulforhodamine B assay; settings: HT-29, 48 h
MKN-45 = assay: Growth inhibition of human MKN45 cells after 48 hrs by sulforhodamine B assay; settings: MKN-45, 48 h
OVCAR-3 = assay: Growth inhibition of human OVCAR3 cells after 48 hrs by sulforhodamine B assay; settings: OVCAR-3, 48 h
ACHN = assay: Growth inhibition of human ACHN cells after 48 hrs by sulforhodamine B assay
NCI-H460 = assay: Growth inhibition of human NCI-H460 cells after 48 hrs by sulforhodamine B assay; settings: NCI-H460, 48 h
HCT-15 = assay: Growth inhibition of human HCT15 cells after 48 hrs by sulforhodamine B assay; settings: HCT-15, 48 h
NCI-H522 = assay: Growth inhibition of human NCI-H522 cells after 48 hrs by sulforhodamine B assay; settings: NCI-H522, 48 h
St-4 = assay: Growth inhibition of human St-4 cells after 48 hrs by sulforhodamine B assay; settings: St-4, 48 h
A549 = assay: Growth inhibition of human A549 cells after 48 hrs by sulforhodamine B assay; settings: A549, 48 h
DU-145 = assay: Growth inhibition of human DU145 cells after 48 hrs by sulforhodamine B assay; settings: DU-145, 48 h
[1] = Growth inhibition of human RXF631L cells after 48 hrs by sulforhodamine B assay; settings: RXF 631, 48 h
SF-539 = assay: Growth inhibition of human SF539 cells after 48 hrs by sulforhodamine B assay; settings: SF-539, 48 h
OVCAR-8 = assay: Growth inhibition of human OVCAR8 cells after 48 hrs by sulforhodamine B assay; settings: OVCAR-8, 48 h
DMS-273 = assay: Growth inhibition of human DMS273 cells after 48 hrs by sulforhodamine B assay; settings: DMS-273, 48 h
[2] = Growth inhibition of human MKN1 cells after 48 hrs by sulforhodamine B assay; settings: MKN-1, 48 h
MCF7 = assay: Growth inhibition of human MCF7 cells after 48 hrs by sulforhodamine B assay; settings: MCF7, 48 h
KM12 = assay: Growth inhibition of human KM12 cells after 48 hrs by sulforhodamine B assay; settings: KM12, 48 h
HCT-116 = assay: Growth inhibition of human HCT116 cells after 48 hrs by sulforhodamine B assay; settings: HCT-116, 48 h
OVCAR-4 = assay: Growth inhibition of human OVCAR4 cells after 48 hrs by sulforhodamine B assay; settings: OVCAR-4, 48 h
MKN-28 = assay: Growth inhibition of human MKN28 cells after 48 hrs by sulforhodamine B assay; settings: MKN-28, 48 h
U-251 = assay: Growth inhibition of human U251 cells after 48 hrs by sulforhodamine B assay; settings: U-251, 48 h
[3] = Growth inhibition of human HCC2998 cells after 48 hrs by sulforhodamine B assay; settings: HCC 2998, 48 h
PC-3 = assay: Growth inhibition of human PC3 cells after 48 hrs by sulforhodamine B assay; settings: PC-3, 48 h
NCI-H226 = assay: Growth inhibition of human NCI-H226 cells after 48 hrs by sulforhodamine B assay; settings: NCI-H226, 48 h
NCI-H23 = assay: Growth inhibition of human NCI-H23 cells after 48 hrs by sulforhodamine B assay; settings: NCI-H23, 48 h
LOX IMVI = assay: Growth inhibition of human LOXIMVI cells after 48 hrs by sulforhodamine B assay
SNB-78 = assay: Growth inhibition of human SNB78 cells after 48 hrs by sulforhodamine B assay; settings: SNB-78, 48 h
SF-295 = assay: Growth inhibition of human SF295 cells after 48 hrs by sulforhodamine B assay; settings: SF-295, 48 h
MDA-MB-231 = assay: Growth inhibition of human MDA-MB-231 cells after 48 hrs by sulforhodamine B assay; settings: MDA-MB-231, 48 h
[4] = Growth inhibition of human BSY1 cells after 48 hrs by sulforhodamine B assay; settings: BSY-1, 48 h
SNB-75 = assay: Growth inhibition of human SNB75 cells after 48 hrs by sulforhodamine B assay; settings: SNB-75, 48 h
SK-OV-3 = assay: Growth inhibition of human SKOV3 cells after 48 hrs by sulforhodamine B assay; settings: SK-OV-3, 48 h
[5] = Growth inhibition of human HBC5 cells after 48 hrs by sulforhodamine B assay; settings: HBC5, 48 h
MKN-7 = assay: Growth inhibition of human MKN7 cells after 48 hrs by sulforhodamine B assay; settings: MKN-7, 48 h
[6] = Growth inhibition of human HBC4 cells after 48 hrs by sulforhodamine B assay; settings: HBC4, 48 h
DMS-114 = assay: Growth inhibition of human DMS114 cells after 48 hrs by sulforhodamine B assay; settings: DMS-114, 48 h
OVCAR-5 = assay: Growth inhibition of human OVCAR5 cells after 48 hrs by sulforhodamine B assay; settings: OVCAR-5, 48 h
SF-268 = assay: Growth inhibition of human SF268 cells after 48 hrs by sulforhodamine B assay; settings: SF-268, 48 h
MKN-74 = assay: Growth inhibition of human MKN74 cells after 48 hrs by sulforhodamine B assay; settings: MKN-74, 48 h

| Structure (SMILES) | GI50 (HT-29) [µM] | GI50 (MKN-45) [µM] | GI50 (OVCAR-3) [µM] | GI50 (ACHN) [µM] | GI50 (NCI-H460) [µM] | GI50 (HCT-15) [µM] | GI50 (NCI-H522) [µM] | GI50 (St-4) [µM] | GI50 (A549) [µM] | GI50 (DU-145) [µM] | GI50 [1] [µM] | GI50 (SF-539) [µM] | GI50 (OVCAR-8) [µM] | GI50 (DMS-273) [µM] | GI50 [2] [µM] | GI50 (MCF7) [µM] | GI50 (KM12) [µM] | GI50 (HCT-116) [µM] | GI50 (OVCAR-4) [µM] | GI50 (MKN-28) [µM] | also measured |
| --- | --- | --- | --- | --- | --- | --- | --- | --- | --- | --- | --- | --- | --- | --- | --- | --- | --- | --- | --- | --- | --- |
| CCCCCCCCCCCC[C@@H](O)[C@H]1CC[C@H]([C@H](O)CCCCCCCCCCN(C)C(=O)c2ccnn2C)O1 | 8.13 | 11 | 10 | 11 | 5.5 | 10 | 2.29 | 6.76 | 8.51 | 12.9 | 11 | 12 | 6.03 | 3.31 | 5.5 | 5.01 | 4.17 | 0.794 | 10 | 0.302 | GI50 (U-251): 10 µM; GI50 [3]: 12 µM; GI50 (PC-3): 2.19 µM; GI50 (NCI-H226): 9.77 µM; GI50 (NCI-H23): 0.24 µM; GI50 (LOX IMVI): 1.41 µM; GI50 (SNB-78): 12 µM; GI50 (SF-295): 2 µM; GI50 (MDA-MB-231): 8.91 µM; GI50 [4]: 0.501 µM; GI50 (SNB-75): 15.8 µM; GI50 (SK-OV-3): 15.8 µM; GI50 [5]: 3.09 µM; GI50 (MKN-7): 0.0513 µM; GI50 [6]: 10 µM; GI50 (DMS-114): 0.0347 µM; GI50 (OVCAR-5): 14.1 µM; GI50 (SF-268): 15.1 µM; GI50 (MKN-74): 1.7 µM |
| CCCCCCCCCCCC[C@@H](O)[C@H]1CC[C@H]([C@H](O)CCCCCCCCCCNCc2ccnn2C)O1 | 3.02 | 1.82 | 1.51 | 3.09 | 1.7 | 2 | 1.29 | 1.82 | 8.71 | 4.37 | 2.4 | 1.58 | 1.58 | 1.58 | 1.41 | 1.7 | 1.41 | 1.1 | 1.58 | 0.501 | GI50 (U-251): 1.51 µM; GI50 [3]: 1.82 µM; GI50 (PC-3): 2.29 µM; GI50 (NCI-H226): 3.31 µM; GI50 (NCI-H23): 0.646 µM; GI50 (LOX IMVI): 1.2 µM; GI50 (SNB-78): 2.09 µM; GI50 (SF-295): 1.2 µM; GI50 (MDA-MB-231): 2.19 µM; GI50 [4]: 0.339 µM; GI50 (SNB-75): 2 µM; GI50 (SK-OV-3): 2.09 µM; GI50 [5]: 2.09 µM; GI50 (MKN-7): 0.309 µM; GI50 [6]: 1.82 µM; GI50 (DMS-114): 0.129 µM; GI50 (OVCAR-5): 3.09 µM; GI50 (SF-268): 3.63 µM; GI50 (MKN-74): 1.29 µM |
| CCCCCCCCCCCC[C@@H](O)[C@H]1CC[C@H]([C@H](O)CCCCCCCCCCCCc2ccnn2C)O1 | 75.9 | > 100 | > 100 | 87.1 | > 100 | > 100 | 3.8 | 64.6 | 30.9 | > 100 | > 100 | 37.2 | > 100 | 49 | > 100 | 26.9 | 70.8 | 9.12 | 37.2 | 4.37 | GI50 (U-251): > 100 µM; GI50 [3]: 79.4 µM; GI50 (PC-3): > 100 µM; GI50 (NCI-H226): 52.5 µM; GI50 (NCI-H23): 0.912 µM; GI50 (LOX IMVI): > 100 µM; GI50 (SNB-78): > 100 µM; GI50 (SF-295): 24 µM; GI50 (MDA-MB-231): 32.4 µM; GI50 [4]: 32.4 µM; GI50 (SNB-75): > 100 µM; GI50 (SK-OV-3): 77.6 µM; GI50 [5]: 69.2 µM; GI50 (MKN-7): 6.17 µM; GI50 [6]: > 100 µM; GI50 (DMS-114): 0.55 µM; GI50 (OVCAR-5): > 100 µM; GI50 (SF-268): > 100 µM; GI50 (MKN-74): 22.9 µM |
